This note sets out measurements from article PMC9289467, “A Novel Multifunctional 5,6-Dimethoxy-Indanone-Chalcone-Carbamate Hybrids Alleviates Cognitive Decline in Alzheimer’s Disease by Dual Inhibition of Acetylcholinesterase and Inflammation” (Frontiers in Aging Neuroscience, 2022).

One data set has as its system Aβ40 and Aβ42. Format: in vivo, APP/PS1 mice. Conditions: cortex and hippocampus; AP5 40 mg/kg once daily 5 months. How it is done: (§1) APP/PS1 mice of ages 6 months were randomly divided into vehicle (APP/PS1, n = 10) and treatment groups (AP5, n = 10), which were intragastrically administered with AP5 (40 mg/kg) once daily for consecutive 5 months. AP5 was dissolved in distilled water containing 1% sodium carboxymethyl cellulose.
For detecting the pathological soluble or insoluble Aβ in mice, sequential extractions were performed as follows: the half of right hippocampus and cortex from three groups were homogenized in TBS solution containing 5 mM EDTA, phosphatase inhibitor (P1050, Beyotime, Shanghai, China), and protease inhibitor cocktail (P1010, Beyotime) followed by centrifugation at 25,000g at 4°C for 1 h. The supernatant was collected as a TBS fraction and the resulting pellet was solubilized in 70% formic acid (FA), sonicated until the lysis buffer was clear, followed by centrifugation at 25,000g at 4°C for 1 h. The supernatant was collected as the FA fraction and neutralized (1:20) in a neutralization buffer (1 M tris base, 0.5 M Na2HPO4, 0.05% NaN3). Human Aβ40 and Aβ42 were determined by ELISA kits (E-EL-H0452c and E-EL-H0453c, Elabscience, Wuhan, China) in accordance with the manufacturer’s instructions. In addition, the levels of IL-1β (88-7013-88, Invitrogen), IL-6 (EK206HS-96, Multi sciences, HangZhou, China), and TNF-α (88-7324-88, Invitrogen) in TBS fraction were also determined by ELISA.

In data set [1] the test system is hippocampal gene expression. Kind of data set: Bulk RNA-seq of hippocampal tissues. In kind it is in vivo, APP/PS1 mice. How it is done: as §1
Hippocampal specimens from WT, APP/PS1, and AP5 mice stored in dry ice were sent to Beijing Genomics Institute (Wuhan, China), and the total RNA was extracted for RNA sequencing on BGISEQ-500 system. Moreover, the differentially expressed genes between APP/PS1 and AP5 were analyzed after RNA sequencing.

Data set [2] concerns the target T1, AChE-induced Aβ40 fibril formation (Homo sapiens, UniProt P22303).
T1 construct: purchased Roche (AChE); Invitrogen (Aβ40) R005282 (AChE); 03-136 (Aβ40)
Kind of data set: ThT kinetics of AChE-induced Aβ40 fibril formation. In kind it is biochemical. Conditions: co-incubation of AP5 and Aβ40 with AChE, 24-h kinetic ThT assay. How it is done: The effects of AP5 on Aβ fibril formation and pre-formed Aβ fibrils disaggregation were determined using a previously described method of Thioflavin T (ThT, T3516, Sigma Aldrich, St. Louis, MO, United States) fluorometry ([Jan et al., 2010]).
Supplementary materials and methods … ...1 […]
Supplementary Figure 1 … .....7
Supplementary Figure 2 … .....7
Supplementary materials and methods
Prepations ofspecimen for pharmacokinetics analysis
24 h afterdosing. Brains were collected at0, 0.25, 0.5,2, 4,8 and 24 h after administration.Plasma extractions were performed by adding 90 μL methanol and 2 μL internalstandard letrozole (500 ng/mL) to a30 µL plasma sample. […]
Then 90 μL methanol and 2 μL letrozolewere added to 30 µl brainhomogenates. The samples were vortexed for 3 min and centrifuged 15 min at25,000 g.The plasma and brainhomogenate were analyzed by UPLC-TSQ/MS (Thermo Fisher Scientific, Waltham, MA, USA). […]
To study the kinetics of Aβ-AChE fibril complex formation, 10 μM Aβ was mixed with AChE (R005282, Roche, Basel, Switzerland) and different concentrations AP5 and incubated with 10 μM ThT and 50 mM glycine-NaOH (pH 8.5) at 37°C, the ThT fluorescence was continually measured for 24 h at 30 min intervals. […] Fluorescence emission at485 nm was measured on a Spectra MAX GeminiXS fluorometerat an excitation wavelength of 450 nm. […]

T1 sequence (P22303 32-614): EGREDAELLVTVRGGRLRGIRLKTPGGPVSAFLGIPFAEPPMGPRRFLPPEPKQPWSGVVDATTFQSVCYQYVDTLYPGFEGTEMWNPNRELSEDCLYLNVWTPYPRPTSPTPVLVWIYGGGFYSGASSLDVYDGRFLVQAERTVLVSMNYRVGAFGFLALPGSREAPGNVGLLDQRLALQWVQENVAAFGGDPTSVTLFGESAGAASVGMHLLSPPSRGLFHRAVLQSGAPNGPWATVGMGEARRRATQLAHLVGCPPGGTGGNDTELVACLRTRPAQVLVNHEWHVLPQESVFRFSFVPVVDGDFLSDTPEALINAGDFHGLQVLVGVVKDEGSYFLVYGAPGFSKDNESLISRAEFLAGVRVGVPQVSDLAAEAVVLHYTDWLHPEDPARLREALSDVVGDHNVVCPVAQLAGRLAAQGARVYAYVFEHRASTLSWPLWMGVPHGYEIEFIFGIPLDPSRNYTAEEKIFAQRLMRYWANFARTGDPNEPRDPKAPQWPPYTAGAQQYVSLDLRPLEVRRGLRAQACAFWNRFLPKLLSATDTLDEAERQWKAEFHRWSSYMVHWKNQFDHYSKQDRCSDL

On to `CCN(C)C(=O)Oc1cccc(/C=C2\Cc3cc(OC)c(OC)cc3C2=O)c1` [AP5, (E)-3-((5,6-dimethoxy-1-oxo-1,3-dihydro-2H-inden-2-ylidene)-methyl)phenylethyl(methyl)carbamate], for which, in the data set on Aβ40 and Aβ42, the “Aβ40 and Aβ42 in TBS-fraction” value was “no marked differences”; the “concentration of insoluble Aβ40 in FA-fractions” value was “markedly decreased”; the “concentration of insoluble Aβ42 in FA-fractions” value is listed as “markedly decreased”. Besides, the “expression of genes linked to pan-reactive and A1 astrocytes” value in data set [1] (hippocampus RNA-seq) is recorded as “reduced the expression of most genes”. In addition, the “expression of signature genes of A2-specific astrocytes” value in data set [1] (hippocampus RNA-seq, among groups) is given as “No differences”. Moreover, in data set [1] (hippocampus, AP5-treated vs untreated APP/PS1 mice), the DAM gene expression entry was “increase in DAM gene expression”. In addition, the “ThT intensity, AChE-induced Aβ40 fibril formation” value in data set [2] is given as “substantially lowered the ThT intensity in a dose-dependent manner”.
